Source: the NIST ThermoML archive (doi:10.1016/j.jct.2018.10.006)
Numbers after ± are expanded uncertainties.

Test: molar heat capacity at constant pressure
Details: 101.33 kPa, Crystal 2, Small (less than 1 g) adiabatic calorimetry

O=P([O-])([O-])[O-].[Cs+].[Ni+2] [cesium nickel monophosphate]
Details | molar heat capacity at constant pressure [J/K/mol]
5 K | 0.898 ± 0.033
6 K | 1.272 ± 0.042
6.21 K | 1.255 ± 0.042
6.51 K | 1.413 ± 0.042
6.82 K | 1.605 ± 0.05
7 K | 1.721 ± 0.05
7.13 K | 1.788 ± 0.05
7.51 K | 1.987 ± 0.058
7.97 K | 2.195 ± 0.058
8 K | 2.203 ± 0.058
8.43 K | 2.444 ± 0.067
8.87 K | 2.627 ± 0.067
9 K | 2.719 ± 0.075
9.32 K | 2.902 ± 0.075
9.77 K | 3.176 ± 0.083
10 K | 3.351 ± 0.083
10.24 K | 3.492 ± 0.091
10.72 K | 3.908 ± 0.1
11.23 K | 4.299 ± 0.11
11.76 K | 4.756 ± 0.12
12.55 K | 5.496 ± 0.13
13.09 K | 6.119 ± 0.15
13.82 K | 6.826 ± 0.16
14.55 K | 7.566 ± 0.17
15 K | 8.032 ± 0.18
15.28 K | 8.431 ± 0.11
16.02 K | 9.146 ± 0.12
16.77 K | 9.844 ± 0.12
17.78 K | 10.73 ± 0.12
18.33 K | 11.31 ± 0.13
19.12 K | 12.07 ± 0.13
19.94 K | 13.03 ± 0.14
20 K | 13.06 ± 0.14
21.96 K | 15.22 ± 0.16
24.23 K | 17.56 ± 0.17
25 K | 18.54 ± 0.17
26.66 K | 20.67 ± 0.18
29.06 K | 23.5 ± 0.19
30 K | 24.62 ± 0.2
31.53 K | 26.28 ± 0.21
34.01 K | 28.63 ± 0.22
35 K | 29.56 ± 0.23
36.46 K | 30.81 ± 0.24
38.9 K | 33.32 ± 0.25
40 K | 34.26 ± 0.26
41.34 K | 35.6 ± 0.22
43.79 K | 38.06 ± 0.23
45 K | 39.07 ± 0.24
46.25 K | 40.1 ± 0.24
48.71 K | 42.56 ± 0.26
50 K | 43.9 ± 0.27
51.87 K | 45.56 ± 0.27
53.99 K | 47.57 ± 0.28
56.52 K | 50.12 ± 0.29
58.51 K | 51.87 ± 0.3
60 K | 52.93 ± 0.3
61.71 K | 54.33 ± 0.31
63.47 K | 55.42 ± 0.32
67.49 K | 58.66 ± 0.33
68.37 K | 59.49 ± 0.33
70 K | 60.41 ± 0.34
70.84 K | 61.18 ± 0.34
73.34 K | 62.62 ± 0.35
75.82 K | 64.02 ± 0.36
78.29 K | 65.34 ± 0.36
80 K | 66.38 ± 0.37
80.75 K | 66.68 ± 0.37
81.73 K | 67.23 ± 0.37
83.21 K | 67.91 ± 0.37
85.55 K | 69.26 ± 0.37
85.67 K | 69.26 ± 0.37
88.13 K | 70.96 ± 0.38
88.91 K | 71.04 ± 0.38
90 K | 71.65 ± 0.41
92.27 K | 73.08 ± 0.42
95.63 K | 74.82 ± 0.42
98.99 K | 76.75 ± 0.42
100 K | 77.58 ± 0.43
102.34 K | 78.95 ± 0.43
105.7 K | 80.67 ± 0.44
109.06 K | 82.69 ± 0.45
110 K | 82.93 ± 0.45
112.41 K | 84.06 ± 0.5
115.76 K | 85.56 ± 0.5
119.1 K | 86.8 ± 0.5
120 K | 87.3 ± 0.5
122.44 K | 88.22 ± 0.5
125.78 K | 89.96 ± 0.5
129.12 K | 91.04 ± 0.5
130 K | 91.38 ± 0.5
132.46 K | 92.37 ± 0.5
135.8 K | 93.29 ± 0.5
139.13 K | 94.95 ± 0.5
140 K | 95.37 ± 0.5
142.46 K | 96.61 ± 0.5
145.78 K | 97.86 ± 0.5
149.1 K | 99.03 ± 0.5
150 K | 99.52 ± 0.5
152.42 K | 100.44 ± 0.5
155.74 K | 101.69 ± 0.5
159.04 K | 103.27 ± 0.5
